From ChEMBL document CHEMBL1201862, “PubChem BioAssay data set” (2004)
The source made the active and inactive calls.

What was measured:
cells [1] = type: functional, cell-based
[2] = target: T1, Nuclear receptor subfamily 0 group B member 1 (Homo sapiens, UniProt P51843); type: functional, cell-based;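 note: HEK293T cells transfected with SF-1 and DAX-1 plus StAR promoter luciferase reporter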
T1 sequence (P51843 whole entry): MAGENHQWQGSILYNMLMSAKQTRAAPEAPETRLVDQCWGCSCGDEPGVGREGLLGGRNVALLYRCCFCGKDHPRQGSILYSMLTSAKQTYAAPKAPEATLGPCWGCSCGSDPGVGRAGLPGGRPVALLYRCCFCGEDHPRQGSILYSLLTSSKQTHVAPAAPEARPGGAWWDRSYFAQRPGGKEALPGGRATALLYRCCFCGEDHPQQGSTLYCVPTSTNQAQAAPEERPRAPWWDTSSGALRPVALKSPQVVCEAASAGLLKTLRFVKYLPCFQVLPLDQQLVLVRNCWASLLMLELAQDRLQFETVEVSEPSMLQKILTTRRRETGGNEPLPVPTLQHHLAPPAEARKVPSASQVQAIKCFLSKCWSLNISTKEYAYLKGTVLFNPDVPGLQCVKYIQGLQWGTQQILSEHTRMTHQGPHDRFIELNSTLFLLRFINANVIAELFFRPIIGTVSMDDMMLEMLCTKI

cells [3] = type: functional, cell-based; remark: listed apart in the source
[4] = target: T2, Trace amine-associated receptor 1 (Homo sapiens, UniProt Q96RJ0); test: Fluorescence-based cell-based high throughput dose response assay to identify agonists of the human trace amine associated receptor 1 (TAAR1).; type: functional
T2 sequence (Q96RJ0 whole entry): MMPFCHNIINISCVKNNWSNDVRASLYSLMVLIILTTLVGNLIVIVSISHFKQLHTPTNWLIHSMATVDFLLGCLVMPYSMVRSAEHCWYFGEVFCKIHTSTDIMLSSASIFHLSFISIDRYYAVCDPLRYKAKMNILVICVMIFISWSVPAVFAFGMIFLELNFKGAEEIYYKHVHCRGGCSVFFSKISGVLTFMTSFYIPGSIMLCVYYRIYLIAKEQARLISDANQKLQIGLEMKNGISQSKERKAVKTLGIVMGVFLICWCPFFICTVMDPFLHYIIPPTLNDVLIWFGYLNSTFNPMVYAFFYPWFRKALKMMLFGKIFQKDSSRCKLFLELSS

[5] = target: T2, Trace amine-associated receptor 1; test: Counterscreen for agonists of the human trace amine associated receptor 1 (hTAAR1): Fluorescence-based cell-based high throughput dose response assay to identify hTAAR1 agonist that also desensitize TAAR1 receptor response.; type: functional
cells [6] = type: functional, cell-based; remark: listed apart in the source
[7] = target: T3, Small ubiquitin-related modifier 1 (Homo sapiens, UniProt P63165); test: SUMO1 protein interaction blockers, potency – biochemical, fluorescence polarization, uHTS hits, dose response (AID 624382); type: functional; settings: read-out: IC50_Mean
[8] = target: T3, Small ubiquitin-related modifier 1; test: SUMO1 protein-protein binding blockers, potency – biochemical, FRET, dose response (AID 624383); type: functional; settings: read-out: IC50_Mean
[9] = target: Nuclear receptor subfamily 5 group A member 2 (Homo sapiens, UniProt O00482); type: functional, cell-based;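 note: HEK293T cells transfected with LRH-1 and a StAR promoter luciferase reporter; potency for inhibitors that lower LRH-1 driven reporter light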
Steroidogenic factor 1 = Steroidogenic factor 1 (Homo sapiens, UniProt Q13285); test: Counterscreen for inverse agonists of the liver receptor homolog-1 (LRH-1; NR5A2): Luminescence-based cell-based high throughput dose response assay to identify inverse agonists of the Steroidogenic Factor 1 Nuclear Receptor (SF1; NR5A1).; type: functional
[10] = nonselective StAR promoter luciferase inhibitors – cell-based, luminescence, luciferase reporter, counter-screen for LRH-1 inverse agonist project, dose response (AID 651969); type: functional
[11] = target: T4, Adenosylmethionine-8-amino-7-oxononanoate aminotransferase (Mycobacterium tuberculosis, UniProt P9WQ81); test: Mycobacterium tuberculosis BioA enzyme inhibitor Measured in Biochemical System Using Plate Reader - 2163-02_Inhibitor_Dose_CherryPick_Activity.; type: functional, Mycobacterium tuberculosis UT205
T4 sequence (P9WQ81 whole entry): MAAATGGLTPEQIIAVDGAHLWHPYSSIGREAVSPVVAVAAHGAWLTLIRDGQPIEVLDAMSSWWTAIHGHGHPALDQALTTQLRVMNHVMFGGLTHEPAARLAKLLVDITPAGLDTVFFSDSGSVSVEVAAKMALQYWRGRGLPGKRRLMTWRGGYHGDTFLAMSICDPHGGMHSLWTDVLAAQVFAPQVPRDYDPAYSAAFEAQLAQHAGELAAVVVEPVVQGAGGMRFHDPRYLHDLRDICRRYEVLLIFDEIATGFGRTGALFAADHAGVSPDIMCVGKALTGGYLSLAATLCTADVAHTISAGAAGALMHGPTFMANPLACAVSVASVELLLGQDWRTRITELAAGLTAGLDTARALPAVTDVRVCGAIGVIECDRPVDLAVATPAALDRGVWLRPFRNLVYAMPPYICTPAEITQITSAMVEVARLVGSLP

Nonstructural protein 1 = Nonstructural protein 1 (Influenza A virus, UniProt Q194T2); type: functional, Influenza A virus (A/California/07/2009(H1N1))
[12] = viability loss in HeLa cells – cytotoxicity control for MgcRacGAP inhibitor project, dose response (AID 624300); type: functional
[13] = target: T5, Rac GTPase-activating protein 1 (Homo sapiens, UniProt Q9H0H5); test: blockers of MgcRacGAP-driven Rac1 GTP hydrolysis – biochemical, ADP Hunter fluorescence, primary and confirmatory, confirmation (AID 624330); type: functional
T5 sequence (Q9H0H5 whole entry): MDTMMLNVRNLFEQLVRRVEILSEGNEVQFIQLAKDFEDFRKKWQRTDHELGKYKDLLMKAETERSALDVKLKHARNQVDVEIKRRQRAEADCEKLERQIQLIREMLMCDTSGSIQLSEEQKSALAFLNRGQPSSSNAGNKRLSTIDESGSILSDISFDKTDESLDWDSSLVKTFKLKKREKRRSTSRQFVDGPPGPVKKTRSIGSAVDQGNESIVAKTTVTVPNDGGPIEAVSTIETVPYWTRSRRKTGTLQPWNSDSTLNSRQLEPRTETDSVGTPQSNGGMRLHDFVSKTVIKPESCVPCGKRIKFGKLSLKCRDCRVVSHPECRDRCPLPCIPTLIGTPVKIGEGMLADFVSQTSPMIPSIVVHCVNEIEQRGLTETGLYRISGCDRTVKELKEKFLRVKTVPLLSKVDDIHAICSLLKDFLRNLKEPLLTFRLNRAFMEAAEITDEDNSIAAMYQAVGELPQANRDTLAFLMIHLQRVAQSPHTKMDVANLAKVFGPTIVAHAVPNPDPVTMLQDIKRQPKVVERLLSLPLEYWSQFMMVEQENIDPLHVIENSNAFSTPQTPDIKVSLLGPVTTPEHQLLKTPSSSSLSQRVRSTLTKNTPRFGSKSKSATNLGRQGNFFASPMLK

[14] = target: T6, DNA repair protein RAD52 homolog (Homo sapiens, UniProt P43351); type: functional, biochemical
T6 sequence (P43351 whole entry): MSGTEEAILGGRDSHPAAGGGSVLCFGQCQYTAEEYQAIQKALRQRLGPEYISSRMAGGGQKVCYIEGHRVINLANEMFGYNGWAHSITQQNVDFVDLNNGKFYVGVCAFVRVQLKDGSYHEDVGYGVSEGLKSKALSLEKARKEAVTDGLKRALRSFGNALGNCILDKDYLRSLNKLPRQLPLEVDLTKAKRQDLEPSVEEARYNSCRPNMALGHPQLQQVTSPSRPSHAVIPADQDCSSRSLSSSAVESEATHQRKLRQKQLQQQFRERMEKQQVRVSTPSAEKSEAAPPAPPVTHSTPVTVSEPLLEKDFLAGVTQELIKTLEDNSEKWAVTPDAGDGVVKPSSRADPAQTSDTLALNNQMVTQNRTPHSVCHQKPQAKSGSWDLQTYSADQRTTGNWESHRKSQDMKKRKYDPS

Chain of Nuclear receptor subfamily 5 group A member 2 (O00482 whole entry): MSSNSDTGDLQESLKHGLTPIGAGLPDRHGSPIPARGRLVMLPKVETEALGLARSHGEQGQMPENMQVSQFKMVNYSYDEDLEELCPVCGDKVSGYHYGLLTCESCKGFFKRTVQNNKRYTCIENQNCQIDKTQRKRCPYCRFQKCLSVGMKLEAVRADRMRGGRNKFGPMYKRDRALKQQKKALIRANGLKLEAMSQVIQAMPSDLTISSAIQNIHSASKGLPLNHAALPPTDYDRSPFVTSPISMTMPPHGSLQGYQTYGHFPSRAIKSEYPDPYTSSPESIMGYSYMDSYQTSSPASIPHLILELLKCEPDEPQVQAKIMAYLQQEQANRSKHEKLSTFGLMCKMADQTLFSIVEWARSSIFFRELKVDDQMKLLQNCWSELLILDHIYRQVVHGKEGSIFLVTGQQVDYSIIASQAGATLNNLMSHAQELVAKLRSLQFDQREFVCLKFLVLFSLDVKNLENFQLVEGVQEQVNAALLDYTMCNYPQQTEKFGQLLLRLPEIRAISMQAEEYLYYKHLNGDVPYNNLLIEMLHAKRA
Chain of Steroidogenic factor 1 (Q13285 whole entry): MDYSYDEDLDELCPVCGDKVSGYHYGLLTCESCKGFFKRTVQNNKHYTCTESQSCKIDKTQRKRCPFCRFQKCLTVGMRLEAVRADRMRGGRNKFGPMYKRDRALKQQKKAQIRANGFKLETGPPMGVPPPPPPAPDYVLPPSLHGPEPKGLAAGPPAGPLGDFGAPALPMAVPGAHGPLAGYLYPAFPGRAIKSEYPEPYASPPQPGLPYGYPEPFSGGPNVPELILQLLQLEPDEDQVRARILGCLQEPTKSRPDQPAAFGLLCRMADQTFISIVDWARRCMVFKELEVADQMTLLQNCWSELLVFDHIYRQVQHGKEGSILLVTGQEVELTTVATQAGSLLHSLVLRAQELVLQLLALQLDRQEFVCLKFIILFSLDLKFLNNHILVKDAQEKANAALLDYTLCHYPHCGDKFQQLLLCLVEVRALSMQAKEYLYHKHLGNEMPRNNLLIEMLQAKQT
T3 sequence (P63165 whole entry): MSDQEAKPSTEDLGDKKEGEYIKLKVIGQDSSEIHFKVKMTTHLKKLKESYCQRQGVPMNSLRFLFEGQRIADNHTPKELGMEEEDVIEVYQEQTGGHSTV
Chain of Nonstructural protein 1 (Q194T2 whole entry): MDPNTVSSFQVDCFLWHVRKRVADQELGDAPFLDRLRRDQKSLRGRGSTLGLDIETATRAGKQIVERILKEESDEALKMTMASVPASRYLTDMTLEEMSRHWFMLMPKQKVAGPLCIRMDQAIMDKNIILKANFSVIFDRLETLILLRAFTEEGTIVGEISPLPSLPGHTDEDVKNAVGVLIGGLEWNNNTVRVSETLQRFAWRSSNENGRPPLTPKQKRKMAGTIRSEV

In the case of `COc1ccc(C(CNC(=O)c2ccc(Cl)c(NC(=O)c3cccs3)c2)N2CCCC2)cc1` (configuration not stated), the IC50 (cells [1]) is reported as > 67.5 µM (inactive) and the IC50 [2] is reported as > 67.5 µM (inactive).

For `O=C(Nc1ccncc1)Nc1ccc(F)cc1`, the IC50 (cells [3]) was > 29.9 µM (inactive), the EC50 [4] was 0.548 µM (active) and the IC50 [5] was 4.91 µM (active). The EC50 (cells [6]) was > 29.9 µM (inactive).

In the case of `Cc1ccc(Cn2c(CCNc3nc(-c4ccc(C)cc4)cs3)nc3cc(C(=O)NCCCO)ccc32)cc1`, the IC50 [7] is reported as > 66.6 µM (inactive) and the IC50 [8] is reported as 9.43 µM (active).

With `CCc1cc(=O)oc2c(C)c(OCC(=O)NCCCN3CCOCC3)ccc12` the IC50 [9] was 35.9 µM (inactive), the IC50 (Steroidogenic factor 1) was 35.9 µM (inactive) and the IC50 [10] was 35.9 µM (inactive).

With `CC1(C(=O)NCc2ccc(F)c(F)c2)Cc2c(-c3cccc(C(N)=O)c3)ccnc2O1` (configuration not stated) the AC50 [11] was 0.498 µM (active).

With `CC(O)(c1cccnc1)c1nc(-c2cccc(C#N)c2)cs1` (configuration not stated) the IC50 [9] was 35.9 µM (inactive), the IC50 (Steroidogenic factor 1) was 15.7 µM (inactive) and the IC50 [10] was 35.9 µM (inactive).

For `CC(=O)c1cccc(-c2ccnc3c2CC(C(=O)NCc2ccccc2)O3)c1` (configuration not stated), the IC50 (cells [1]) was > 67.4 µM (inactive) and the IC50 [2] was > 67.4 µM (inactive).

With `COc1cc(C(=O)c2cc3c(cc2C)OCO3)cc(OC)c1OC` the IC50 (cells [1]) was > 67.5 µM (inactive) and the IC50 [2] was > 67.5 µM (inactive).

With `CCOc1cccc(-c2c(C(=O)N/N=C/c3ccc(C)o3)nnn2-c2nonc2N)c1` the IC50 (cells [3]) was > 29.9 µM (inactive), the EC50 [4] was 3.78 µM (active) and the IC50 [5] was 17.2 µM (inactive). For the same molecule, the EC50 (cells [6]) was 19.4 µM (inactive).

In the case of `CCN(CC)CCNc1ccc(C)c2sc3ccc(O)cc3c(=O)c12`, the IC50 (Nonstructural protein 1) is reported as 19.7 µM (active), the CC50 [12] is reported as 31 µM (active) and the IC50 [13] is reported as 21.8 µM (active). The AC50 [14] was 0.655 µM (active).
